Measurements reported in a compilation of properties of binary mixtures (doi:10.1016/j.molliq.2022.120022).

Test: xn = mol fraction of the nth substance listed
Details: 100 kPa

O + C[N+](C)(C)CCO.NCC(=O)[O-]
x2 = 0
Details | speed of sound [m/s] | viscosity [mPa·s]
298.15 K | – | 0.89
303.15 K | – | 0.8
308.15 K | – | 0.72
313.15 K | 1529 | 0.66
318.15 K | – | 0.61
323.15 K | – | 0.56

C[N+](C)(C)CCO.NCC(=O)[O-] + O
Details | speed of sound [m/s] | viscosity [mPa·s]
298.15 K, x1 = 0.1 | 1927.4 | 5.83
298.15 K, x1 = 0.2004 | 2082.9 | 23.73
298.15 K, x1 = 0.3 | 2134.5 | 56.96
298.15 K, x1 = 0.3996 | 2152.4 | 99
298.15 K, x1 = 0.5004 | 2156.2 | 154.4
298.15 K, x1 = 0.6004 | 2156 | 216
298.15 K, x1 = 0.6966 | 2153.1 | 274
298.15 K, x1 = 0.8014 | 2151.8 | 348
298.15 K, x1 = 0.8996 | 2146 | 420
303.15 K, x1 = 0.1 | 1922.7 | 5.01
303.15 K, x1 = 0.2004 | 2073.3 | 19.44
303.15 K, x1 = 0.3 | 2122.9 | 45.62
303.15 K, x1 = 0.3996 | 2140.5 | 77.3
303.15 K, x1 = 0.5004 | 2144.8 | 115.5
303.15 K, x1 = 0.6004 | 2143.4 | 160.8
303.15 K, x1 = 0.8014 | 2136.2 | 257
303.15 K, x1 = 0.8996 | 2133.2 | 306
303.15 K, x1 = 1 | 2129.1 | 363
308.15 K, x1 = 0.2004 | 2063.4 | 16.15
308.15 K, x1 = 0.3 | 2111.5 | 37.06
308.15 K, x1 = 0.5004 | 2132.2 | 89.6
308.15 K, x1 = 0.6004 | 2130.3 | 122.8
308.15 K, x1 = 0.6966 | 2127.8 | 153.5
308.15 K, x1 = 0.8014 | 2125.2 | 191.6
308.15 K, x1 = 0.8996 | 2120.1 | 227
308.15 K, x1 = 1 | 2116 | 264
313.15 K, x1 = 0.1 | 1911.9 | 3.8
313.15 K, x1 = 0.2004 | 2053.2 | 13.57
313.15 K, x1 = 0.3 | 2099.8 | 30.58
313.15 K, x1 = 0.6004 | 2118 | 95.3
313.15 K, x1 = 0.6966 | 2115 | 118.6
313.15 K, x1 = 0.8014 | 2112.1 | 147.4
313.15 K, x1 = 0.8996 | 2107.2 | 172.7
313.15 K, x1 = 1 | 2103.5 | 201
318.15 K, x1 = 0.2004 | 2043 | 11.51
318.15 K, x1 = 0.6004 | 2105.6 | 75.6
318.15 K, x1 = 0.6966 | 2102.3 | 92.7
318.15 K, x1 = 0.8014 | 2098.7 | 114.4
318.15 K, x1 = 0.8996 | 2094.2 | 134.5
323.15 K, x1 = 0.1 | 1899.4 | 2.97
323.15 K, x1 = 0.2004 | 2032.2 | 9.83
323.15 K, x1 = 0.3 | 2076.6 | 21.79
323.15 K, x1 = 0.3996 | 2091.4 | 34.59
323.15 K, x1 = 0.5004 | 2094.9 | 46.6
323.15 K, x1 = 0.6004 | 2092.8 | 60.8
323.15 K, x1 = 0.6966 | 2089.9 | 74.1
323.15 K, x1 = 0.8014 | 2086.3 | 91
323.15 K, x1 = 0.8996 | 2081.8 | 105.2
323.15 K, x1 = 1 | 2078.3 | 121.1
